# In patent US10130585B2, “Methods of treating and/or preventing cardiovascular disease” (Murray and Poole Enterprises Limited, priority 2013, dated 2018):
# Tests used:
# [1] = system: patients with stable coronary disease; assay: LoDoCo Trial, colchicine 0.5 mg/day added to standard secondary prevention; format: in vivo, human
# Protocol: This study is described in PCT/AU2013/001261 and is hereby incorporated in its entirety by reference.
# All outcomes were evaluated by an experienced adjudicator blinded to the treatment allocation.
# Patients with a history of bypass surgery were only eligible if they had undergone bypass surgery more than 10 years before, or had angiographic evidence of graft failure or had undergone stenting since their bypass surgery. All patients signed informed consent before randomization.
# The randomization sequence was computer generated, kept concealed from the investigators at all times and was managed by a research assistant who had no involvement in the evaluation or management of study patients. Once the assistant received the consent form, the patients' demographic data were entered into the data base and the investigators and patients were advised in writing of the treatment group to which the patient had been assigned. […] Patients who were intolerant to therapy remained in the study, and were followed in the usual manner and included in the primary intention to treat analysis.
# The drug was dispensed by their usual chemist, and if requested, patients were reimbursed for the cost of these scripts. All other treatments were continued as usual.
# Patient compliance with treatment and outcome data were collected at routine follow up visits and at the time of any unplanned hospital admission. An acute coronary syndrome (ACS) was defined as either (a) Acute Myocardial Infarction (AMI), as evidenced by acute ischemic chest pain associated with a rise in serum troponin above the upper limit of normal or (b) Unstable Angina (UA), as evidenced by a recent acceleration of the patient's angina unassociated with a rise in serum troponin but associated with angiographic evidence of a change in the patient's coronary anatomy. (Unstable Angina Braunwald classification types IB and IIB). The ACS was characterized as being stent-related if there was evidence of significant in-stent stenosis or acute stent thrombosis. Out of Hospital Cardiac Arrest was defined as either a sudden death as evidenced on the patient's death certificate, or a non-fatal out of hospital cardiac arrest, defined as a recovery from sudden collapse associated with documented asystole, ventricular tachycardia or ventricular fibrillation. Noncardioembolic ischemic stroke was defined as CT or MRI proven ischemic stroke adjudged by the treating neurologist as not being due to atrial fibrillation or intracranial hemorrhage.
# The primary efficacy outcome was the composite, ACS, fatal or non-fatal out of hospital cardiac arrest or non-cardio-embolic ischemic stroke. Secondary outcomes were (a) individual components of the primary outcome, and (b) the components of ACS unrelated to stent disease.
# The pre-specified study duration was a minimum follow up of two years in all patients. Accordingly the study was closed on May 31, 2012. During May, all living patients were contacted by phone to collect compliance and outcome data from the last date of follow-up. Final outcome data were available in all patients and no patients were lost to follow up.
# Summary statistics, including mean and standard deviation were calculated for all baseline characteristics by treatment arm. All time to event outcomes were calculated in days by subtracting the date of randomization from either: (1) the date of event or death; or (2) the trial termination date for those patients not experiencing the defined event. […]
# [2] = system: patients with a first episode of recurrent pericarditis; details: conventional treatment with aspirin plus colchicine 1.0-2.0 mg first day then 0.5-1.0 mg/d for 6 months; cited from earlier work
smiles,measurement,setting,value
"COc1cc2c(c(OC)c1OC)-c1ccc(OC)c(=O)cc1[C@@H](NC(C)=O)CC2 [colchicine, N[5,6,7,9-tetrahydro-1,2,3,10-tetratmethoxy 9-oxobenzo[a]heptalen-7-yl],(S)-acetamide]","number needed to treat, primary outcome",[1]; colchicine 0.5 mg/day vs control,11
same,patients who died,"[1]; colchicine group (n=282), all of non-cardiac causes",4 patients
same,patients reporting early intolerance due to gastrointestinal side effects,[1]; of 282 randomized to colchicine 0.5 mg/day,11%
same,"patients with events, on-treatment analysis",[1]; patients compliant and tolerant to therapy beyond the first month,4.5%
same,Out of hospital cardiac arrest and non-cardio-embolic ischemic stroke,[1]; treatment group vs control,also reduced in the treatment group
same,"recurrence rate, actuarial rate at 18 months",[2],24.0%
